This note sets out measurements from publication PMC12472322, “Structure–Activity Relationship Study of 3-Alkynyl-6-aryl-isothiazolo[4,3-b]pyridines as Dual Inhibitors of the Lipid Kinases PIKfyve and PIP4K2C” (Pharmaceuticals, 2025).

pIC50: −log10 of the molar value.

T1 sequence (Q9Y2I7 whole entry): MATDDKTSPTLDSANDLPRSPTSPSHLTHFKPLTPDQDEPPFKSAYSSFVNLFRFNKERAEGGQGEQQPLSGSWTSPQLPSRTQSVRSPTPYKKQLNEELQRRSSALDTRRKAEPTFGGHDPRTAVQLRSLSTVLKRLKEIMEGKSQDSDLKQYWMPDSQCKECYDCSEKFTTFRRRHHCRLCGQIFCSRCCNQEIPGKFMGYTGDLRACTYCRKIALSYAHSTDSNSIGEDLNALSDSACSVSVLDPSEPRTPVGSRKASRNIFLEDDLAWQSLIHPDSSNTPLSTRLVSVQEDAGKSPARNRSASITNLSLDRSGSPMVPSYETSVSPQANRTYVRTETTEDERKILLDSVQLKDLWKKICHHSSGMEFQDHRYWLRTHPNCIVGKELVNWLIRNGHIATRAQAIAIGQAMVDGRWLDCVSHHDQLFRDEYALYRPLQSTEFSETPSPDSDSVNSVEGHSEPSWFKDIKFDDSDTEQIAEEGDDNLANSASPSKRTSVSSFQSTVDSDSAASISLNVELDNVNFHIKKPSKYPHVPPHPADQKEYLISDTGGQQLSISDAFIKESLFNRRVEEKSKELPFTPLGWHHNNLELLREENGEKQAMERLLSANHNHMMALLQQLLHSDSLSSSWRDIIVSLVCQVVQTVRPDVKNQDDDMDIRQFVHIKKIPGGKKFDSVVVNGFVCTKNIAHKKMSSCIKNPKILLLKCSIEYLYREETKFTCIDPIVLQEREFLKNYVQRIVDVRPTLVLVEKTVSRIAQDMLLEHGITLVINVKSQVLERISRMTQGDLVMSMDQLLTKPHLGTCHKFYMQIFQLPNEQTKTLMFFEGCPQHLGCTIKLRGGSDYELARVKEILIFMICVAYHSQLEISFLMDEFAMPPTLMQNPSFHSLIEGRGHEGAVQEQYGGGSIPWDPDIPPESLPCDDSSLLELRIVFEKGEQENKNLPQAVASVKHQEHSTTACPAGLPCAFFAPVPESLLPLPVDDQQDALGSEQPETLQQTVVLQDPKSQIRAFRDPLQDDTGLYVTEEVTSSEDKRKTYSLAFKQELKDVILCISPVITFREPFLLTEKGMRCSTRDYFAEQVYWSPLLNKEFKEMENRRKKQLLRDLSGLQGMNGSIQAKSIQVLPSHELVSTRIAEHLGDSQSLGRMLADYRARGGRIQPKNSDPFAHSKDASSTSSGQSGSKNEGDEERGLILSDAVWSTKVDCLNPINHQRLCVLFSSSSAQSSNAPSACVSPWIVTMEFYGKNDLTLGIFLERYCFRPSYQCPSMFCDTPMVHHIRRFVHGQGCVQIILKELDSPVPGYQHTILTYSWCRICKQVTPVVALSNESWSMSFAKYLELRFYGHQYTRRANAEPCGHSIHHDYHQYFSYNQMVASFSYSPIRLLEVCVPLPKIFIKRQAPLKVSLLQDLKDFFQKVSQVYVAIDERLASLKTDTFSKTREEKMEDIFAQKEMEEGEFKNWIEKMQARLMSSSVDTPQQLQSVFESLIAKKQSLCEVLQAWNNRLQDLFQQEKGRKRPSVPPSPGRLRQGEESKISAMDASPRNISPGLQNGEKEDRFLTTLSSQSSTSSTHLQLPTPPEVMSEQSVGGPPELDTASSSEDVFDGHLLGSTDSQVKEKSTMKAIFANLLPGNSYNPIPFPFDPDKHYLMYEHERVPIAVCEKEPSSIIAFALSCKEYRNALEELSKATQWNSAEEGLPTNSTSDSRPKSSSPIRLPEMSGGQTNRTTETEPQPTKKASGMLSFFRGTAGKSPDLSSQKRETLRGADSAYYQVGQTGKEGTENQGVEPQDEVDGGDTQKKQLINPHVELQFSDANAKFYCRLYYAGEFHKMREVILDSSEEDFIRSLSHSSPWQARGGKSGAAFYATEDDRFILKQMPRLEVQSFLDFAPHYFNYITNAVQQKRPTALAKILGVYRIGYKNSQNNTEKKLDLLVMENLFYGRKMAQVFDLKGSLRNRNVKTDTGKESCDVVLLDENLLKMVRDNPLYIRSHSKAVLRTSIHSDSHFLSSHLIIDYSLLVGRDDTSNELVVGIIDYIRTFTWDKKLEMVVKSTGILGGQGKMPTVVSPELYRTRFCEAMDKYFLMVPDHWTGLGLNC

One assay addresses T1, PIKfyve (Homo sapiens, UniProt Q9Y2I7).
T1 construct: purchased Nanosyn, Santa Clara, CA, USA (contract assay service)
Briefly: biochemical PIKfyve mobility shift assay (Nanosyn).
Conditions: not given
With `COc1ccc(-c2cnc3c(NC(=O)c4cccnc4)snc3c2)cc1OC` [Compound 20, N-(6-(3,4-Dimethoxyphenyl)isothiazolo[4,3-b]pyridin-3-yl)nicotinamide], the “PIKfyve inhibition in words” value is “practically inactive”.

Staying with this assay, now noted: Tables 1-4 and text.
Take `COc1ccc(C#Cc2snc3cc(-c4ccc(OC)c(OC)c4)cnc23)c(OC)n1` [Compound 7u, 6-(3,4-Dimethoxyphenyl)-3-((2,6-dimethoxypyridin-3-yl)ethynyl)isothiazolo[4,3-b]pyridine]: the pIC50 was 5.25.
Turning to `COc1ccc(-c2cnc3c(C#Cc4ccncc4)snc3c2)cc1OC` [Compound 7x, 6-(3,4-Dimethoxyphenyl)-3-(pyridin-4-ylethynyl)isothiazolo[4,3-b]pyridine], the pIC50 is 7.12.
Consider `COc1ccc(-c2cnc3c(/C=C(\SCCO)c4cccnc4)snc3c2)cc1OC` [Compound 23d, (Z)-2-((2-(6-(3,4-Dimethoxyphenyl)isothiazolo[4,3-b]pyridin-3-yl)-1-(pyridin-3-yl)vinyl)thio)ethan-1-ol], for which the pIC50 was 5.81.
`COc1ccc(-c2cnc3c(C#Cc4ccccn4)snc3c2)cc1OC` [Compound 7y, 6-(3,4-Dimethoxyphenyl)-3-(pyridin-2-ylethynyl)isothiazolo[4,3-b]pyridine]: the negative logarithm of the IC50 (pIC50) was 7.52.
`COc1ccc(-c2cnc3c(C#Cc4cc(F)cnc4OC)snc3c2)cc1OC` [Compound 7t, 6-(3,4-Dimethoxyphenyl)-3-((5-fluoro-2-methoxypyridin-3-yl)ethynyl)isothiazolo[4,3-b]pyridine]: the pIC50 was under 5.00.
With `COc1ccc(-c2cnc3c(C#Cc4ccc(F)cc4)snc3c2)cc1OC` [Compound 7c, 6-(3,4-Dimethoxyphenyl)-3-((4-fluorophenyl)ethynyl)isothiazolo[4,3-b]pyridine], the pIC50 was 6.60.
Same read-out and setting: to `COc1ccc(-c2cnc3c(C#CCNc4ccccc4)snc3c2)cc1OC` [Compound 13, N-(3-(6-(3,4-Dimethoxyphenyl)isothiazolo[4,3-b]pyridin-3-yl)prop-2-yn-1-yl)aniline] belongs 6.74; to `O=C(c1cccc(-c2cnc3c(C#Cc4cccnc4)snc3c2)c1)N1CCCC1` [Compound 3r, (3-(3-(Pyridin-3-ylethynyl)isothiazolo[4,3-b]pyridin-6-yl)phenyl)(pyrrolidin-1-yl)methanone], 8.21; to `COc1ccc(-c2cnc3c(C#Cc4ccc(C(F)(F)F)nc4)snc3c2)cc1OC` [Compound 7n, 6-(3,4-Dimethoxyphenyl)-3-((6-(trifluoromethyl)pyridin-3-yl)ethynyl)isothiazolo[4,3-b]pyridine], 6.17.
Regarding `COc1ccc(-c2cnc3c(C#CCNC(=O)Nc4ccccc4)snc3c2)cc1OC` [Compound 11c, 1-(3-(6-(3,4-Dimethoxyphenyl)isothiazolo[4,3-b]pyridin-3-yl)prop-2-yn-1-yl)-3-phenylurea], the pIC50 was under 5.00.
On to `C(#Cc1snc2cccnc12)c1cccnc1` [Compound 2a, 3-(Pyridin-3-ylethynyl)isothiazolo[4,3-b]pyridine], for which the pIC50 was 5.94.
With `CCNC(=O)c1ccc(-c2cnc3c(C#Cc4cccnc4)snc3c2)cc1` [Compound 3n, N-Ethyl-4-(3-(pyridin-3-ylethynyl)isothiazolo[4,3-b]pyridin-6-yl)benzamide], the negative-log IC50 (pIC50) is 8.46.
As for `COc1ccc(-c2cnc3c(C#Cc4ccccc4)snc3c2)cc1OC` [Compound 7b, 6-(3,4-Dimethoxyphenyl)-3-(phenylethynyl)isothiazolo[4,3-b]pyridine], the negative logarithm of the IC50 (pIC50) was 7.23.
Still for that read-out and setting: to `COc1ccc(-c2cnc3c(NC(=O)c4cccnc4)snc3c2)cc1OC` [Compound 20, N-(6-(3,4-Dimethoxyphenyl)isothiazolo[4,3-b]pyridin-3-yl)nicotinamide] belongs 5.37; to `O=C(c1ccc(-c2cnc3c(C#Cc4cccnc4)snc3c2)cc1)N1CCCC1` [Compound 3p, (4-(3-(Pyridin-3-ylethynyl)isothiazolo[4,3-b]pyridin-6-yl)phenyl)(pyrrolidin-1-yl)methanone], 7.70; to `CCOc1ncccc1C#Cc1snc2cc(-c3ccc(OC)c(OC)c3)cnc12` [Compound 7s, 6-(3,4-Dimethoxyphenyl)-3-((2-ethoxypyridin-3-yl)ethynyl)isothiazolo[4,3-b]pyridine], 6.96.
Same read-out and setting: to `CC(C)Oc1ccc(-c2cnc3c(C#Cc4cccnc4)snc3c2)cc1` [Compound 3e, 6-(4-Isopropoxyphenyl)-3-(pyridin-3-ylethynyl)isothiazolo[4,3-b]pyridine] belongs 7.70.
Take `CN(C)c1ccc(-c2cnc3c(C#Cc4cccnc4)snc3c2)cc1` [Compound 3d, N,N-Dimethyl-4-(3-(pyridin-3-ylethynyl)isothiazolo[4,3-b]pyridin-6-yl)aniline]: the pIC50 was 8.66.
As to `COc1ccc(-c2cnc3c(C#Cc4cccc(Cl)c4)snc3c2)cc1OC` [Compound 7d, 6-(3,4-Dimethoxyphenyl)-3-((3-chlorophenyl)ethynyl)isothiazolo[4,3-b]pyridine], the pIC50 is 7.41.
In the case of `COc1ccc(-c2cnc3c(CCc4cccnc4)snc3c2)cc1OC` [Compound 22, 6-(3,4-Dimethoxyphenyl)-3-(2-(pyridin-3-yl)ethyl)isothiazolo[4,3-b]pyridine], the negative-log IC50 (pIC50) was 7.48.
For `COc1ccc(-c2cnc3c(/C=C(\OCCN(C)C)c4cccnc4)snc3c2)cc1OC` [Compound 23b], the pIC50 was 6.51.
As to `CN(C)C(=O)c1cccc(-c2cnc3c(C#Cc4cccnc4)snc3c2)c1` [Compound 3q, N,N-Dimethyl-3-(3-(pyridin-3-ylethynyl)isothiazolo[4,3-b]pyridin-6-yl)benzamide], the pIC50 was 7.74.
In the case of `COc1ccc(-c2cnc3c(-c4cccnc4)snc3c2)cc1OC` [Compound 17, 6-(3,4-Dimethoxyphenyl)-3-(pyridin-3-yl)isothiazolo[4,3-b]pyridine], the negative logarithm of the IC50 (pIC50) is 6.22.
As for `CN(C)C(=O)c1ccc(-c2cnc3c(C#Cc4cccnc4)snc3c2)cc1` [Compound 3o, N,N-Dimethyl-4-(3-(pyridin-3-ylethynyl)isothiazolo[4,3-b]pyridin-6-yl)benzamide], the pIC50 was 7.60.
For `CCCC#Cc1snc2cc(-c3ccc(OC)c(OC)c3)cnc12` [Compound 7a, 6-(3,4-Dimethoxyphenyl)-3-(pent-1-yn-1-yl)isothiazolo[4,3-b]pyridine], the pIC50 is 6.07.
Same read-out and setting: with `COc1ccc(-c2cnc3c(C#Cc4ccc(C)nc4)snc3c2)cc1OC` [Compound 7g, 6-(3,4-Dimethoxyphenyl)-3-((6-methylpyridin-3-yl)ethynyl)isothiazolo[4,3-b]pyridine] the figure was 6.44; with `COc1ccc(C#Cc2snc3cc(-c4ccc(OC)c(OC)c4)cnc23)cn1` [Compound 7h, 6-(3,4-Dimethoxyphenyl)-3-((6-methoxypyridin-3-yl)ethynyl)isothiazolo[4,3-b]pyridine], 6.23.
For the compound `COc1ccc(-c2cnc3c(C#Cc4ccc(F)nc4)snc3c2)cc1OC` [Compound 7j, 6-(3,4-Dimethoxyphenyl)-3-((6-fluoropyridin-3-yl)ethynyl)isothiazolo[4,3-b]pyridine], the pIC50 is 6.92.
Regarding `COc1ccc(-c2cnc3c(C#Cc4cc(C)cnc4F)snc3c2)cc1OC` [Compound 7v, 6-(3,4-Dimethoxyphenyl)-3-((2-fluoro-5-methylpyridin-3-yl)ethynyl)isothiazolo[4,3-b]pyridine], the pIC50 is 7.38.

Staying with this assay, now noted: ratio of IC50 values.
As to `CCCC#Cc1snc2cc(-c3ccc(OC)c(OC)c3)cnc12` [Compound 7a, 6-(3,4-Dimethoxyphenyl)-3-(pent-1-yn-1-yl)isothiazolo[4,3-b]pyridine], the “fold less potent on PIKfyve relative to RMC-113” value is 100 fold.
